# Test results published in patent publication US20240216519A1, “SMALL HYDROPHOBIC PROTEIN DRUG CONJUGATES AND USES THEREOF” (priority 2021, published 2024).
# Where no end group is shown, it is not given here.
# T1: GPR125 (ADGRA3) (Homo sapiens, UniProt Q8IWK6)
# T1 sequence (Q8IWK6 34-1321): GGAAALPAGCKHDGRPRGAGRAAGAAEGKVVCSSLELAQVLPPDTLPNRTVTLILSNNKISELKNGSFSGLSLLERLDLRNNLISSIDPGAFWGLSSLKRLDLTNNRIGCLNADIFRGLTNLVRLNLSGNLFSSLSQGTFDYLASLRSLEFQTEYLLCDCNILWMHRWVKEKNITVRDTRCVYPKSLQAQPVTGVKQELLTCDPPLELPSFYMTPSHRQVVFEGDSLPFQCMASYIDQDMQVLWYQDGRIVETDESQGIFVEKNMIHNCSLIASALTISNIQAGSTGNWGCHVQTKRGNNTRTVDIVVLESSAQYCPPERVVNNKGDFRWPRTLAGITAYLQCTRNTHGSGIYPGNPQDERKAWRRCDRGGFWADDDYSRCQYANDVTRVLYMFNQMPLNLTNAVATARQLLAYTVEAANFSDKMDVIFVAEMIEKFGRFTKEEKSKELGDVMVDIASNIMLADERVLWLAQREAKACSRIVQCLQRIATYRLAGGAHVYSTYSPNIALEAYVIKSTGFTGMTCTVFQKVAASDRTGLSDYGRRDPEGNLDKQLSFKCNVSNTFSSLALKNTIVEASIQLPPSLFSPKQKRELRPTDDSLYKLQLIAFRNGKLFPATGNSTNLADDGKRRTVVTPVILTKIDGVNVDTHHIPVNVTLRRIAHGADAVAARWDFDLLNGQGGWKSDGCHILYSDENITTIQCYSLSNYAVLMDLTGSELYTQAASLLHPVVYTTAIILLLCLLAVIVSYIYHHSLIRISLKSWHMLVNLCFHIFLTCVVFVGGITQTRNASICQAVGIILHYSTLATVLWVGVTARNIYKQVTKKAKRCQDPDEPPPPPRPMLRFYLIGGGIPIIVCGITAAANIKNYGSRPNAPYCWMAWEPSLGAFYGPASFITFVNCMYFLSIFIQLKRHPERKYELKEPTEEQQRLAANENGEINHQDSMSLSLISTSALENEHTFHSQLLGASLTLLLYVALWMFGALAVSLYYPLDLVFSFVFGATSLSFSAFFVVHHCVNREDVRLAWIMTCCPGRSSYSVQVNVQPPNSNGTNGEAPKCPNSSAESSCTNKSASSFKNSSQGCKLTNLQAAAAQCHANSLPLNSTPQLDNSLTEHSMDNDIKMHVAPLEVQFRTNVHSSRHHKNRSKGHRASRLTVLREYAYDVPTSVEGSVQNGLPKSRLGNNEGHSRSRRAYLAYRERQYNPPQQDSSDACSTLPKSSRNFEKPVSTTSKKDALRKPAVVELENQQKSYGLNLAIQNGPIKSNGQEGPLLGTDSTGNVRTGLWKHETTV
# T2: GPR125 (ADGRA3) in mouse choroid plexus (mouse, UniProt Q7TT36 28-1310)
# T2 construct: whole, on cells
# T2 sequence: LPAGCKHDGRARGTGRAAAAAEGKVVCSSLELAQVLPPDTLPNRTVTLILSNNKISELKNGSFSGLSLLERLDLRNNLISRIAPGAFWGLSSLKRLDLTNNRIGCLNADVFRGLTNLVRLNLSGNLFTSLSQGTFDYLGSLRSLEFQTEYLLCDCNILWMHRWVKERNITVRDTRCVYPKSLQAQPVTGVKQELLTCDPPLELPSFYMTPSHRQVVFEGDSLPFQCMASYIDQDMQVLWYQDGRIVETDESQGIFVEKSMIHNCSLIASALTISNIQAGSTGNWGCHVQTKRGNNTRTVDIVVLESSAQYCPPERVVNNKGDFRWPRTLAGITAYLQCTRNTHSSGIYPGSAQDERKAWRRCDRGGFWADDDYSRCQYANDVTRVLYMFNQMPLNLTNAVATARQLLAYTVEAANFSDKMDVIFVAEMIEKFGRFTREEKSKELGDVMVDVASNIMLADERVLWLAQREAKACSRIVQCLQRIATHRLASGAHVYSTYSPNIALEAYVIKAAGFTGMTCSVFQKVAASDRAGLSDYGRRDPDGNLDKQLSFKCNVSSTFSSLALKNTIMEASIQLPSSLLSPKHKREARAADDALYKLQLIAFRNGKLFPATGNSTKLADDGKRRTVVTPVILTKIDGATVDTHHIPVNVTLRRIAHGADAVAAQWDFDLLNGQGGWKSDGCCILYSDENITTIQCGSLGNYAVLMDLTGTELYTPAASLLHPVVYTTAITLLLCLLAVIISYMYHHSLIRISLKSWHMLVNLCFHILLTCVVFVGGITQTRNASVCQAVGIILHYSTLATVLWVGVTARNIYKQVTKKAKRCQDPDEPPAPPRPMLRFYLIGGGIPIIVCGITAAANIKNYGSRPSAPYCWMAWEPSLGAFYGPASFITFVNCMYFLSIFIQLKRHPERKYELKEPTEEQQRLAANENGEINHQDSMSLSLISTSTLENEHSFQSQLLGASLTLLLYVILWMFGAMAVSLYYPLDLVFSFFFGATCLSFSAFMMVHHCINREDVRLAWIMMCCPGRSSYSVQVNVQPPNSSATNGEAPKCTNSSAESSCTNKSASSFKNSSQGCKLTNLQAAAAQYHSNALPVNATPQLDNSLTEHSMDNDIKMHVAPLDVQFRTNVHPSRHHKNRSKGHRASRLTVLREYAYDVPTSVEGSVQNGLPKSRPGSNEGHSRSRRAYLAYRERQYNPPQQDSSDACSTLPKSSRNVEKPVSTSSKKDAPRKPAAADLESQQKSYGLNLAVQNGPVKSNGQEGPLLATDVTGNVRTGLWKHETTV
# Key:
# GPR125 (ADGRA3) [1] = molecular target: T1, GPR125 (ADGRA3); experiment: xCELLigence impedance, HEK293 Flp-In T-rex cells with full length GPR125; type: cell-based; design: HEK293 Flp-In T-rex cells stably transfected with full length (FL) GPR125; expressed in transfected cells; host or cells: HEK293 Flp-In T-rex cells; conditions: HEK293 Flp-In T-rex cells stably transfected with full length (FL) GPR125, first 30 minutes after stimulation
# Experimental: (§1) Once the cells are added to the E-plate they are allowed to adhere and proliferate for 18 hours during which the impedance is measured every 15 minutes generating the initial adhesion and growth curve. Upon stimulation the measurements are change to rapid detection every 15 seconds followed by every minute and every 5 minutes during the first hour after stimulation.
# GPR125 (ADGRA3) [2] = molecular target: T1, GPR125 (ADGRA3); experiment: xCELLigence impedance, MDA231 cells endogenously expressing GPR125; type: cell-based; conditions: first 30 minutes after stimulation
# Experimental: as §1
# C57BL/6J mice [3] = experiment: Acute food intake in lean mice, SH(2-11)-Exendin-4 (Example 12); type: in vivo, mouse; conditions: 15 nmol/kg s.c., conjugate also vs Exendin-4(1-39)
# Experimental: Female C57BL/6J mice were purchased from Charles Rivers. One week before study initiation the mice were single housed with free access to food and water. […] Food intake was measured after 1, 2, 4 and 14 hours (FIG. 16A-D).
# C57BL/6J mice [4] = experiment: Acute food intake in lean mice, s.c. (Example 10); type: in vivo, mouse
# Experimental: Female C57BL/6J mice were purchased from Charles Rivers. One week before study initiation the mice were single housed with free access to food and water. […] Thirty minutes prior peptide injection, all mice were administered subcutaneously with DDP-4 inhibitor Valine-pyrrolidide (1.5 mg/mouse). Food intake was measured after 1, 2, 4 and 14 hours (FIG. 14A-D).
# Results shown are combined data from five studies with an identical study design as described above. Between each study mice had at least one week washout period.
# [5] = Plasma and CSF concentrations after injection into vena cava (RIA GLP-1 assay); type: in vivo; conditions: rat, 10 min after i.v. injection
# Experimental: Male Sprague Dawley rats were purchased from Charles Rivers. Animals were anesthetized by hypnorm/dormicum, and restrained in a stereotactic instrument. […] Blood samples were collected prior to the injection of test compounds and straight after CSF aspiration.
# The assay buffer was 100 mM Tris buffer with pH 8.5 containing 1% (wt/vol) human serum albumin, 0.01 mM valine-pyrrolidide and 500 KIE aprotinin (final concentrations). […] Plasma and CSF concentrations were measured after dilution in assay buffer. Free and bound moieties were separated with plasma-coated charcoal.
# [6] = tested on: Diet induced obese C57BL/6NTac male mice; experiment: Acute food intake in diet induced obese mice, s.c. (Example 11); type: in vivo, mouse; conditions: 15 nmol/kg s.c., conjugate also vs GLP-1(7-36)
# Experimental: Diet induced obese C57BL/6NTac male mice were purchased from Taconic and continued on a high fat high sucrose diet with free access to water. One week after arrival, animals were double or single housed. […] Thirty minutes prior peptide injection, all mice were administered subcutaneously with DDP-4 inhibitor Valine-pyrrolidide (3 mg/mouse). Food intake was measured after 1, 2, 4 and 14 hours (FIG. 15A-D).
# [7] = molecular target: T2, GPR125 (ADGRA3) in mouse choroid plexus; experiment: fluorescence microscopy of mouse brain cryosections, WT against GPR125 KO (KO stained only at 22 µM and 11 µM)
molecule,measurement,setting,value
SH1-57: whole mumps virus SH protein 1-57 (MPAIQPPLYLTFLLLILLYLIITLYVWIILTITYKTAVRHAALYQRSFFRWSFDHSL; Genotype G Genbank ID QFO38283.1 1-57; (1)..(57) Genotype G Genbank ID QFO38283.1 1-57),"GPR125 signaling, area under the curve (AUC) of impedance",GPR125 (ADGRA3) [1],affected GPR125 signaling
same,"GPR125 signaling, area under the curve (AUC) of impedance",GPR125 (ADGRA3) [2],affected GPR125 signaling
"SH1-9: MPAIQPPLY, MuV SH protein fragment (1-9) (Genotype G Genbank ID QFO38283.1 1-9)","GPR125 signaling, area under the curve (AUC) of impedance",GPR125 (ADGRA3) [1],affected GPR125 signaling
same,"GPR125 signaling, area under the curve (AUC) of impedance",GPR125 (ADGRA3) [2],affected GPR125 signaling
Exendin-4 [Exendin-4(1-39)],food intake compared to vehicle,C57BL/6J mice [3]; after 1 hour,decreased food intake
same,food intake compared to vehicle,C57BL/6J mice [3]; after 2 hours,decreased food intake
same,food intake compared to vehicle,C57BL/6J mice [3]; after 4 hours,less significant
"CC[C@H](C)[C@H](NC(=O)[C@H](Cc1ccccc1)NC(=O)[C@H](CCC(=O)O)NC(=O)[C@H](CCCCN)NC(=O)[C@H](C)NC(=O)[C@H](C)NC(=O)[C@H](CCC(N)=O)NC(=O)CNC(=O)[C@H](CCC(=O)O)NC(=O)[C@H](CC(C)C)NC(=O)[C@H](Cc1ccc(O)cc1)NC(=O)[C@H](CO)NC(=O)[C@H](CO)NC(=O)[C@@H](NC(=O)[C@H](CC(=O)O)NC(=O)[C@H](CO)NC(=O)[C@@H](NC(=O)[C@H](Cc1ccccc1)NC(=O)[C@@H](NC(=O)CNC(=O)[C@H](CCC(=O)O)NC(=O)[C@H](C)NC(=O)[C@@H](N)Cc1c[nH]cn1)[C@@H](C)O)[C@@H](C)O)C(C)C)C(=O)N[C@@H](C)C(=O)N[C@@H](Cc1c[nH]c2ccccc12)C(=O)N[C@@H](CC(C)C)C(=O)N[C@H](C(=O)N[C@@H](CCCCN)C(=O)NCC(=O)N[C@@H](CCCNC(=N)N)C(N)=O)C(C)C [GLP-1(7-36), GLP-1 (7-36) amide, reference compound]",food intake compared to vehicle,"C57BL/6J mice [4]; 15 nmol/kg s.c., after 1 hour",did not show a significant decrease
same,food intake compared to vehicle,"C57BL/6J mice [4]; 15 nmol/kg s.c., after 2 hours",did not show a significant decrease
same,food intake compared to vehicle,"C57BL/6J mice [4]; 15 nmol/kg s.c., after 4 hours",did not show a significant decrease
same,food intake compared to vehicle,"C57BL/6J mice [4]; 15 nmol/kg s.c., after 14 hours",did not show a significant decrease
same,food intake compared to vehicle,"C57BL/6J mice [4]; 30 nmol/kg s.c., after 1 hour",decreased their food intake significantly
same,food intake compared to vehicle,"C57BL/6J mice [4]; 30 nmol/kg s.c., after 2 hours",decreased their food intake significantly
same,food intake compared to vehicle,"C57BL/6J mice [4]; 30 nmol/kg s.c., after 4 hours",less significant
same,detectable in CSF by RIA GLP-1 assay,[5],detectable
same,food intake compared to vehicle,[6]; after 1 hour,decreased food intake
same,food intake compared to vehicle,[6]; after 2 hours,decreased food intake
same,food intake compared to vehicle,[6]; after 4 hours,not present
"SH2-9: PAIQPPLY, MuV SH protein fragment (2-9) (Genotype G Genbank ID QFO38283.1 2-9)","GPR125 signaling, area under the curve (AUC) of impedance",GPR125 (ADGRA3) [1],affected GPR125 signaling
same,"GPR125 signaling, area under the curve (AUC) of impedance",GPR125 (ADGRA3) [2],affected GPR125 signaling
"TAMRA labelled SH-protein (SEQ ID NO: 129) (other, also: TAMRA labelled, also called TAMRA-functionalized SH protein) MPAIQPPLYLTFLLLILLYLIITLYVWIILTVTYKTAVRHAALYQRSFFHWSFDHSL",binding result,[7],binds
